# Assay results taken from PubChem BioAssay AID1320 (NMMLSC, 2008).
# Calls of active or inactive are those of the source. How the calls were made is not given here.
# Target: Bcl-2-related protein A1 (Homo sapiens) (UniProt Q16548)
# Test: Bfl-1/Bim complex disruptors – biochemical, multiplexed, bead-based flow cytometry, dose response (AID 1320); on percent span (inhibition): test concentration not given here
# Details: Bim peptide-Bfl-1 binding, fluorescence
# Chain of Bcl-2-related protein A1 (Homo sapiens) (Q16548 whole entry, looked up): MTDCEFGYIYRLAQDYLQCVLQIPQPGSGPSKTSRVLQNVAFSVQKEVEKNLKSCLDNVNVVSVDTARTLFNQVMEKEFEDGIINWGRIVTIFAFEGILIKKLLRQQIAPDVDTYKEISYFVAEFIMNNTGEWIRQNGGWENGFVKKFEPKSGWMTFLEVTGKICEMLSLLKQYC
row,SMILES,EC50
1,COc1ccc(N2C(=O)C(Cl)=C(Nc3c(C)n(C)n(-c4ccccc4)c3=O)C2=O)cc1,inactive
2,CCC(=O)N(CC)C1=C(O)c2ccccc2C(=O)C1=O,80 nM
3,O=[N+]([O-])c1ccc(N/N=C/c2ccc(O)c(O)c2O)c(S(=O)(=O)N2CCOCC2)c1,4480 nM
4,Cc1cccc(N2C(S)=C(C#N)C(=O)NC2c2cccs2)c1 (configuration not stated),inactive

# Same assay, conditions: Bim peptide-Bfl-1 binding, fluorescence, hits give high values
row,SMILES,percent span (inhibition)
1,CN(C)C(Cc1ccccc1)C(=O)c1cccs1 (configuration not stated),inactive
2,CCOc1ccc(CNc2ccc(N3CCCC3)cc2)cc1,inactive
3,Cc1cc(C)c2nc3nc(C)cc(C)c3c(N)c2c1,inactive
4,Cc1ccc(-c2cc(C(=O)Nc3cccnc3)c3ccccc3n2)o1,inactive
5,Cc1nc2ccccc2n1CSc1ccccc1,inactive
6,O=C1c2ccccc2C(=O)c2cc(S(=O)(=O)Nc3ccccc3)ccc21,inactive
7,CNc1nc2ccccc2n1/N=C/c1cccc(OC)c1OC,inactive
8,COc1ccc(C(=O)NC(=S)N2CCNC(=O)C2)cc1Br,inactive
9,Cc1ccnc(SCc2cc(=O)c(OC(=O)c3ccc(Cl)c([N+](=O)[O-])c3)co2)n1,inactive
10,NC(=O)CSc1nnc(Cn2cnc3ccccc32)o1,inactive
11,COc1ccc(C2CC(=O)C3=C(C2)Nc2ccccc2NC3c2coc3ccccc3c2=O)cc1OC (configuration not stated),inactive
12,Cc1cccc(-n2c(-c3ccncc3)n[nH]c2=S)c1,inactive
13,CCN(CC)c1ccc(NC(=O)c2ccc(=O)[nH]c2)cc1S(=O)(=O)Nc1ccccc1OC,inactive
14,Cc1cc(C)nc(SCc2cc(=O)c(OC(=O)c3cccc([N+](=O)[O-])c3)co2)n1,inactive
15,CN(Cc1ccccc1)C(=O)c1[nH]cnc1C(=O)N[C@@H](CCCCNC(=O)OC(C)(C)C)C(=O)OC(C)(C)C,inactive
16,CCOc1ccccc1NC(=O)CSc1nnc2ccc(-c3cccnc3)nn12,inactive
17,COc1cc2c(cc1OC)C(c1ccccc1F)OC(=O)C2 (configuration not stated),inactive
18,CSc1ccccc1NC(=O)CN(C)CC(=O)Nc1ccc(N2CCOCC2)cc1,inactive
19,Cc1ccc(NC(=O)CSc2nc3ccccc3c(=O)n2CCCN2CCCCC2)cc1Cl,inactive
20,O=C(COc1ccccc1)Nc1ccc2c(c1)Cc1cc(NC(=O)COc3ccccc3)ccc1-2,inactive
21,c1ccc(-c2nc(N3CCCCCC3)c3ccccc3n2)nc1,inactive
22,COc1cc(NC(=O)c2ccc3c(c2)OCO3)ccc1NC(=O)c1ccco1,inactive
23,Cc1ccc(C(=O)CCC(=O)Nc2ccc(Cl)c(S(=O)(=O)Nc3cccc(Cl)c3)c2)cc1,inactive
24,O=C(Nc1n[nH]c(C(F)(F)F)n1)C1CC1,inactive
25,CC1Cc2ccccc2N1C(=O)CSc1nnnn1-c1ccc2c(c1)OCCO2 (configuration not stated),inactive

row,SMILES,percent span (inhibition)
1,O=C(c1ccccc1NS(=O)(=O)c1ccc(Br)s1)N1CCCC1,inactive
2,CNc1ccccc(C(=O)/C=C/c2ccccc2OC)c1=O,inactive
3,COc1ccc(OCCNC(=O)c2ccccc2OCC(=O)N2CCCCC2)cc1,inactive
4,O=C(N/N=C/c1cccnc1)c1cccc(S(=O)(=O)N2CCCC2)c1,inactive
5,COc1ccc2nc(NC(=O)c3ccc(-c4cccc([N+](=O)[O-])c4)o3)sc2c1,inactive
6,O=C(Cc1ccccc1)N/N=C/c1cccn1-c1ccc([N+](=O)[O-])cc1,inactive
7,Cc1sc2nc(C(C)C)nc(SCC(=O)N3c4ccccc4CC3C)c2c1C (configuration not stated),inactive
8,COc1ccc2oc(-c3ccccc3)c(C(=O)N3CCOCC3)c2c1,inactive
9,Cc1ccc(N=c2ssnc2Cl)cc1,inactive
10,Cc1ccc(C)c(N2CCN(C(=S)Nc3ccc4nc(N5CCN(C)CC5)cc(C)c4c3)CC2)c1,inactive
11,O=C(NCCCN1CCCC1=O)NC1CCCCC1,inactive
12,CC(C)C(=O)N1CCN(c2ccc([N+](=O)[O-])cc2Cl)CC1,inactive
13,Cc1ccc(Nc2nc(-c3ccccc3)c(CC(=O)O)s2)cc1,inactive
14,CCOc1ccc(C(=O)Nc2nnc(NC(=S)Nc3ccccc3)s2)cc1,inactive
15,COc1ccccc1Oc1ccc2c(c1)C(=O)N(c1cccc3ncccc13)C2=O,inactive
16,Cn1c(=O)[nH]c(=O)c2c1nc(N1CCOCC1)n2CCSc1nc2ccccc2[nH]1,inactive
17,COc1cccc2c(SCC(=O)N/N=C/c3ccc(O)c(O)c3)cc(C)nc12,inactive
18,COc1ccc(OC)c(NC(=O)COC(=O)c2cc3c(s2)CCC3)c1,inactive
19,CCOc1ccc(C(=O)Nc2nnn(CC)n2)cc1,inactive
20,O=c1c2c(n3nnnc3n1Cc1ccccc1)-c1ccccc1CC21CCCC1,inactive
21,COc1ccccc1Oc1ccc2c(c1)C(=O)N(c1ccccc1)C2=O,inactive
22,NC(=O)c1sc2nc3c(c(-c4ccco4)c2c1N)CCC3,inactive
23,Cn1c(CCNC(=O)C2CCCCC2)nc2cc(NC(=O)c3cccs3)ccc21,inactive
24,CC1Nc2ccccc2C(=O)N1NS(C)(=O)=O (configuration not stated),inactive
25,O=C(/C=C/c1ccc(-c2ccccc2)o1)c1ccccc1,inactive

row,SMILES,percent span (inhibition)
1,O=C(O)/C=C/C(=O)NNC(=O)c1ccc(Br)cc1,inactive
2,N/C(Cc1ccc(Cl)c(Cl)c1)=N\OC(=O)c1cccs1,inactive
3,O=[N+]([O-])c1ccc2[nH]nc(-c3ccccc3)c2c1,inactive
4,CCOC(=O)CCCNC(=O)c1cncc(O)c1,inactive
5,Cc1cccc(Nc2nc(-c3ccncc3)cs2)c1,inactive
6,COc1ccc(N2CCN(C(=O)c3cc(=O)[nH]c4ccccc34)CC2)cc1,inactive
7,CCOc1ccc(N2C(=O)C(Cl)=C(Nc3ccccc3O)C2=O)cc1,inactive
8,O=C(Cn1c(-c2ccccc2)noc1=O)N1CCC(Cc2ccccc2)CC1,inactive
9,S=C(NCCc1ccccc1)NCCc1ccccc1,inactive
10,Cc1sc(NC(=O)Cn2cnnn2)nc1-c1ccc(Cl)cc1,inactive
11,CCN(CC)c1ccc(NC(=O)COc2ccccc2C#N)cc1S(=O)(=O)Nc1ccccc1OC,inactive
12,c1cncc(-c2nnc3n2N=C(c2cccs2)CS3)c1,inactive
13,Cc1nc(NC(=O)CC(C)C)sc1-c1csc(Nc2ccc(Cl)cc2)n1,inactive
14,CCOC(=O)c1ccc(Nc2nc(C(=O)OCC)nc3ccccc23)cc1,inactive
15,COc1cc(/C=C2/NC(=O)N(Cc3ccccc3F)C2=O)cc(OC)c1O,inactive
16,CN1N=C(C(=O)N2CCCC(C(=O)c3cccc(C(F)(F)F)c3)C2)CCC1=O (configuration not stated),inactive
17,CCOC(=O)c1snc(-c2ccc(F)cc2)c1N,inactive
18,CC(C)c1ccc(/C=N/NC(=O)c2ccccc2Cl)cc1,inactive
19,Cc1cc(C)c2c(N)c3cccc(C)c3nc2n1,inactive
20,CCN1CCN(c2cc(C)c3cc(NC(=S)N4CCCCC4)ccc3n2)CC1,inactive
21,OC(COc1ccc2ccccc2c1)CN1CCCC1 (configuration not stated),inactive
22,OC(CNC1CCCCC1)COCCOc1ccc(Br)cc1 (configuration not stated),inactive
23,Cc1cc(C)c[n+](-c2nc3ccccc3nc2C(=C=[N-])C#N)c1,inactive
24,COCCN=c1scc(-c2cccs2)n1/N=C/c1ccc(O)c(O)c1O,inactive
25,Cc1ccc2c(c1)C1CN(C)CCC1N2C(=O)Nc1cccc(Cl)c1 (configuration not stated),inactive

row,SMILES,percent span (inhibition)
1,Cc1cccc(-c2nnc3n2N=C(c2ccccc2)CS3)c1,inactive
2,COc1ccc(C(=O)Nc2ccc(NC(=O)c3cccs3)cc2)cc1Cl,inactive
3,Clc1nc2ccccc2cc1/C=N/Nc1nc2ccccc2[nH]1,inactive
4,COc1ccc(NC(=O)c2sccc2SCc2cccc(C(F)(F)F)c2)cc1,inactive
5,COc1ccc(NC(=O)Cc2c(F)cccc2Cl)c(OC)c1,inactive
6,COc1cc2[nH]c(=S)nc(NCC3CCCO3)c2cc1OC (configuration not stated),inactive
7,Cc1cccc(-n2c(O)c(/C=N/N3CCOCC3)c(=O)[nH]c2=S)c1,inactive
8,O=C(CNC(=O)c1ccco1)NCC(=O)OCc1ccccc1Br,inactive
9,O=C(C1=C(Nc2ccccc2)c2ccccc2S(=O)(=O)N1)c1ccccc1,inactive
10,COC(=O)CSc1nccc(-c2cccs2)n1,inactive
11,O=C(Cc1ccccc1)OCCNC(=O)c1cccnc1,inactive
12,CCn1cc(C=C2C(=O)c3ccccc3C2=O)c2ccccc21,inactive
13,CCOc1cc(S(=O)(=O)N2CCCCC2)ccc1F,inactive
14,Cc1ccc(-n2nc(C)c(C(=O)O)n2)c(C)c1,inactive
15,O=C(NCc1ccco1)C1CC2CCC1C2 (configuration not stated),inactive
16,CNC(=S)N/N=C/C1=CCC2CC1C2(C)C (configuration not stated),inactive
17,O=C1C(=O)c2ccc(-c3ccccc3)cc2-c2ccccc21,inactive
18,Clc1ccc2c(N/N=C/c3cccc(Br)c3)ccnc2c1,inactive
19,Cc1cc(C(=O)NCCCN(C)C)c2ccccc2n1,inactive
20,COc1ccccc1C1=Nc2cccc3cccc(c23)N1,inactive
21,Cc1c(Cc2ccccc2)sc(N)c1C(N)=O,inactive
22,Cc1onc(-c2ccccc2Cl)c1C(=O)Nc1nn[nH]n1,inactive
23,Cc1ccc(S(=O)(=O)NC(=O)COc2ccccc2C)cc1,inactive
